Measurements reported in patent publication US12630534B2 (TAKEDA PHARMACEUTICAL COMPANY LIMITED, priority 2020, dated 2026).

biological target: T1, human GPR139 (Homo sapiens, UniProt Q6DWJ6); assay: Inhibition rate of the amount of IP1 in GPR139-expressed CHO cells (inverse agonist assay, Test Example 2); assay type: cell-based; settings: CHO, relative value, inhibition rate of Example Compound 2 in Test Example 1 defined as 100%
T1 construct: expressed in transfected cells; host or cells: CHO-TREx (Life Technologies) cells, expression induced with doxycycline
T1 sequence (Q6DWJ6 1-353): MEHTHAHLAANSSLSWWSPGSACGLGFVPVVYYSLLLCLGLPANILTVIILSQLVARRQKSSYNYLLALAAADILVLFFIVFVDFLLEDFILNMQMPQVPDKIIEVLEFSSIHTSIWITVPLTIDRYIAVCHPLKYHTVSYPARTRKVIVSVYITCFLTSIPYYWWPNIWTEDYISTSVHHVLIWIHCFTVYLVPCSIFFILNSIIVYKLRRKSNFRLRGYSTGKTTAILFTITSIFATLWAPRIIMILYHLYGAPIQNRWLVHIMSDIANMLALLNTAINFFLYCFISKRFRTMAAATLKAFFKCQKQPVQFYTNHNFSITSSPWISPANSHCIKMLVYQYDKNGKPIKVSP
Method in brief: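 IP1 accumulation read by IP-One HTRF after 40 min compound exposure at 37° C in stimulation buffer, 2000 cells/well, GPR139 expression induced the day before with doxycycline. Results given as relative inhibition rate, normalised to a reference compound set at […].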

SMILES	inhibition at 30 µM [%]
Cc1cn(-c2nc(N3CCO[C@H](C)C3)cc(C(F)(F)F)c2F)c(=O)n1Cc1cnn(C(C)C)c1 [Example 64, 1-{3-fluoro-6-[(2R)-2-methylmorpholin-4-yl]-4-(trifluoromethyl)pyridin-2-yl}-4-methyl-3-{[1-(propan-2-yl)-1H-pyrazol-4-yl]methyl}-1,3-dihydro-2H-imidazol-2-one]	98
CCn1cc(Cn2cc(C)n(-c3cc(C(F)(F)F)cc(N(C)C4CCOCC4)n3)c2=O)cn1 [Example 86, 1-[(1-ethyl-1H-pyrazol-4-yl)methyl]-4-methyl-3-{6-[methyl(oxan-4-yl)amino]-4-(trifluoromethyl)pyridin-2-yl}-1,3-dihydro-2H-imidazol-2-one]	101
Cc1cn(-c2nc(N3CCO[C@H](C)C3)cc(C(F)(F)F)c2Cl)c(=O)n1Cc1cnn(C(C)C)c1 [Example 85, 1-{3-chloro-6-[(2R)-2-methylmorpholin-4-yl]-4-(trifluoromethyl)pyridin-2-yl}-4-methyl-3-{[1-(propan-2-yl)-1H-pyrazol-4-yl]methyl}-1,3-dihydro-2H-imidazol-2-one]	97
CCn1cc(Cn2c(C)c(C)n(-c3cc(OCC(F)F)cc(N4CCO[C@H](C)C4)c3)c2=O)cn1 [Example 46, 1-{3-(2,2-difluoroethoxy)-5-[(2R)-2-methylmorpholin-4-yl]phenyl}-3-[(1-ethyl-1H-pyrazol-4-yl)methyl]-4,5-dimethyl-1,3-dihydro-2H-imidazol-2-one]	100

The next lines start with the values.

inhibition at 30 µM [%]	SMILES
100	Cc1nn(-c2cc(C(F)(F)F)cc(N3CCC(F)(F)CC3)n2)c(=O)n1Cc1cnn(C(C)C)c1 [Example 142, 2-[6-(4,4-difluoropiperidin-1-yl)-4-(trifluoromethyl)pyridin-2-yl]-5-methyl-4-{[1-(propan-2-yl)-1H-pyrazol-4-yl]methyl}-2,4-dihydro-3H-1,2,4-triazol-3-one]
100	CCn1cc(Cn2c(C)nn(-c3cc(N4CCC(F)(F)CC4)cc(C(F)(F)F)c3C)c2=O)cn1 [Example 161, 2-[5-(4,4-difluoropiperidin-1-yl)-2-methyl-3-(trifluoromethyl)phenyl]-4-[(1-ethyl-1H-pyrazol-4-yl)methyl]-5-methyl-2,4-dihydro-3H-1,2,4-triazol-3-one]
105	CCn1cc(Cn2cc(C)n(-c3cc(C(F)(F)F)cc(N4CCOC(F)(F)C4)n3)c2=O)cn1 [Example 111, 3-[6-(2,2-difluoromorpholin-4-yl)-4-(trifluoromethyl)pyridin-2-yl]-1-[(1-ethyl-1H-pyrazol-4-yl)methyl]-4-methyl-1,3-dihydro-2H-imidazol-2-one]
99	CCn1cc(Cn2cnn(-c3cc(N4CCO[C@H](C)C4)cc(C(F)(F)F)c3F)c2=O)cn1 [Example 27, 4-[(1-ethyl-1H-pyrazol-4-yl)methyl]-2-{2-fluoro-5-[(2R)-2-methylmorpholin-4-yl]-3-(trifluoromethyl)phenyl}-2,4-dihydro-3H-1,2,4-triazol-3-one]
101	CCn1cc(Cn2c(C)c(C)n(-c3cc(C(F)(F)F)cc(N4CCO[C@H](C)C4)n3)c2=O)cn1 [Example 60, 1-[(1-Ethyl-1H-pyrazole-4-yl)methyl]-4,5-dimethyl-3-{6-[(2R)-2-methylmorpholine-4-yl]-4-(trifluoromethyl)pyridine-2-yl}-1,3-dihydro-2H-imidazole-2-one]
101	CCn1cc(Cn2c(C)cn(-c3nc(N4CCO[C@H](C)C4)cc(C(F)(F)F)c3C)c2=O)cn1 [Example 45, 3-[(1-ethyl-1H-pyrazol-4-yl)methyl]-4-methyl-1-{3-methyl-6-[(2R)-2-methylmorpholin-4-yl]-4-(trifluoromethyl)pyridin-2-yl}-1,3-dihydro-2H-imidazol-2-one]

same assay, conditions: relative value, inhibition rate of Example Compound 2 in Test Example 1 defined as 100%, 30 µM

Inhibition Rate at 30 μM [%]	SMILES
102	CCn1cc(Cn2cc(C)n(-c3cc(OCC4CC4(F)F)cc(C(F)(F)F)c3)c2=O)cn1 (centres unmarked) [Example 51, 3-{3-[(2,2-difluorocyclopropyl)methoxy]-5-(trifluoromethyl)phenyl}-1-[(1-ethyl-1H-pyrazol-4-yl)methyl]-4-methyl-1,3-dihydro-2H-imidazol-2-one]
